Laboratory results reported in patent publication US20170333391A1, “METHOD FOR DELAYING THE ONSET OF PULMONARY FIBROSIS OR TREATING PULMONARY FIBROSIS” (EVERFRONT BIOTECH INC., priority 2016, published 2017).

Assays:
α-SMA protein = α-SMA protein expression in NHLF, western blotting (3-1); assay type: cell-based, human
Experimental: Normal Human lung fibroblasts (NHLF) were seeded into 6 cm culture dishes at a density of 2×10^5 cells/dish, comprising a control group and six experimental groups (7 dishes in total). The cells were cultured until the next day, and then the mediums were removed. Each group was respectively treated under the following conditions to conduct follow-up experiments: • (1) Control group: cells were cultured in a FGM-2 medium containing 10% serum for 36 hours; • (2) Group i: cells were cultured in a FGM-2 medium containing 1% serum for 36 hours; • (3) Group ii: cells were firstly cultured in a FGM-2 medium containing 1% serum for 12 hours, and then compound (1) was added into the medium to provide a final concentration of 15 μg/ml; thereafter, the cells were cultured for another 24 hours; • (4) Group iii: cells were firstly cultured in a FGM-2 medium containing 1% serum for 12 hours, and then compound (1) was added into the medium to provide a final concentration of 25 μg/ml; thereafter, the cells were cultured for another 24 hours; • (5) Group iv: cells were cultured in a FGM-2 medium containing 1% serum and TGF-β1 (5 ng/ml) for 36 hours; • (6) Group v: cells were firstly cultured in a FGM-2 medium containing 1% serum and TGF-β1 (5 ng/ml) for 12 hours, and then compound (1) was added into the medium to provide a final concentration of 15 μg/ml; thereafter, the cells were cultured for another 24 hours; and • (7) Group vi: cells were firstly cultured in a FGM-2 medium containing 1% serum and TGF-β1 (5 ng/ml) for 12 hours, and then compound (1) was added into the medium to provide a final concentration of 25 μg/ml; thereafter, the cells were cultured for another 24 hours.
(§1) Thereafter, the proteins in the cells of each group were extracted, and the expressions of BMP-7 protein, TGF-β protein and α-SMA protein in the NHLF cells of each group were measured with western blotting, wherein the β-actin served as the internal control. The results of the control group served as the basis for calculating the relative expression levels of the other groups.

surfactant C = surfactant C in mouse pulmonary tissue, western blotting; assay type: in vivo, mice; conditions: compared to oil group
Experimental: 24 C57B/L6 mice (age: four weeks) were separated into four groups (6 mice in each group). […]
The samples of mice pulmonary tissue provided by Example 7 and preserved at −20° C. were removed from storage, and then ground in liquid nitrogen. […] The expressions of TGF-β protein, smad3 protein and surfactant C in the samples of each group were measured with western blotting, wherein the actin served as an internal control.

BMP-7 protein = BMP-7 protein expression in TGF-β1-induced NHLF, western blotting (Example 4); assay type: cell-based, human; conditions: uninduced control = 1, TGF-β1-only group A = 0.19
Experimental: Normal Human lung fibroblasts (NHLF) were seeded into 6 cm culture dishes at a density of 2×10^5 cells/dish, comprising a control group and five experimental groups (6 dishes in total). The cells were cultured until the next day, and then the mediums were removed. Each group was respectively treated under the following conditions to conduct follow-up experiments: • (1) Control group: cells were cultured in a FGM-2 medium containing 1% serum for 36 hours; • (2) Group A: cells were cultured in a FGM-2 medium containing 1% serum and TGF-β1 (5 ng/ml) for 36 hours; • (3) Group B: cells were firstly cultured in a FGM-2 medium containing 1% serum and TGF-β1 (5 ng/ml) for 12 hours, and then compound (1) was added into the medium to provide a final concentration of 15 μg/ml; thereafter, the cells were cultured for another 24 hours; • (4) Group C: cells were firstly cultured in a FGM-2 medium containing 1% serum and TGF-β1 (5 ng/ml) for 12 hours, and then compound (1) was added into the medium to provide a final concentration of 30 μg/ml; thereafter, the cells were cultured for another 24 hours; • (5) Group D: cells were firstly cultured in a FGM-2 medium containing 1% serum and TGF-β1 (5 ng/ml) for 12 hours, and then compound (2) was added into the medium to provide a final concentration of 100 μg/ml; thereafter, the cells were cultured for another 24 hours; and • (6) Group E: cells were firstly cultured in a FGM-2 medium containing 1% serum and TGF-β1 (5 ng/ml) for 12 hours, and then compound (2) was added into the medium to provide a final concentration of 200 μg/ml; thereafter, the cells were cultured for another 24 hours.
as §1, with “p-smad2/3” for “α-SMA”, “blotting.” for “blotting, wherein the β-actin served as the internal control.”

CCCC=C1OC(=O)c2ccccc21 [compound (1)]
Relative expression level (fold) α-SMA protein (α-SMA protein; Group ii: 1% serum 12 h, then compound (1) 15 μg/ml 24 h, no TGF-β1, 10% serum control = 1, 1% serum group i = 0.94): 0.95 fold | Relative expression level (fold) α-SMA protein (α-SMA protein; Group iii: 1% serum 12 h, then compound (1) 25 μg/ml 24 h, no TGF-β1, 10% serum control = 1, 1% serum group i = 0.94): 0.89 fold | Relative expression level (fold) α-SMA protein (α-SMA protein; Group v: 1% serum + TGF-β1 5 ng/ml 12 h, then compound (1) 15 μg/ml 24 h, 10% serum control = 1, TGF-β1-only group iv = 0.89): 0.72 fold | Relative expression level (fold) α-SMA protein (α-SMA protein; Group vi: 1% serum + TGF-β1 5 ng/ml 12 h, then compound (1) 25 μg/ml 24 h, 10% serum control = 1, TGF-β1-only group iv = 0.89): 0.77 fold | expression level of surfactant C in pulmonary tissue (surfactant C; High-dose group, compound (1) 50 mg/kg orally daily 30 days): significantly higher | expression level of surfactant C in pulmonary tissue (surfactant C; Low-dose group, compound (1) 10 mg/kg orally daily 30 days): significantly higher | Relative expression level (fold) BMP-7 protein (BMP-7 protein; Group B: TGF-β1 5 ng/ml 12 h, then compound (1) 15 μg/ml 24 h): 0.68 fold | Relative expression level (fold) BMP-7 protein (BMP-7 protein; Group C: TGF-β1 5 ng/ml 12 h, then compound (1) 30 μg/ml 24 h): 0.31 fold
